Experiments:
[1] = Thermal stability: transformation of crystalline forms on drying or heating, form by XRPD; assay type: physicochemical; conditions: for form obtained upon drying / heating: generally about 40° C. to about 80° C.
Method: The various crystalline forms are related to each other in that drying of one form may result in a transformation to another form, namely nateglinide Forms A, B, D, E, F, G, H, I, J, K, L, M, N, Q, S, T, V, Z, α, β, δ,γ, ε, θ and Ω. The drying is carried out by heating a sample under ambient or reduced pressure. Generally, a preferred temperature is from about 40° C. to about 80° C., more preferably under reduced pressure. […] The term “stable” as used herein refers to a polymorphic change of less than about 5% by weight, more preferably less than about 2%, particularly for Form δ.
Form γ may also be prepared by heating Form J containing seeds of Form γ under similar conditions.
• X-Ray diffraction was performed on X-Ray powder diffractometer, Scintag®, variable goniometer, Cu-tube, solid state detector. Sample holder: A round standard aluminum sample holder with round zero background quartz plate. • The sample was put on the sample holder and immediately analyzed as is. Scanning parameters: Range: 2-40 deg 2θ, Continuos Scan, Rate: 3 deg./min. DSC: • DSC821^e Mettler Toledo®, Sample weight: 3-5 mg, Heating rate: 10° C./min, Number of holes in the crucible: 3 TGA: • Mettler TG50®, Sample weight: 7-15 mg, Heating rate: 10° C./min FTIR: • Perkin-Elmer®, Spectrum One FTIR spectrometer, Range: 4000-400 cm-1, no. of scans: 16, resolution: 4.0 cm-1, DRIFT technique.
Nateglinide Form delta (10 grams), with about 3% heptane (wt/wt), was dried in a fluidized bed drier for 4 hours at 60° C.
Sample of nateglinide form U (˜1 g) was introduced into a 6-gram vial and heated over 8.5 h in a 100° C. oil bath. The vial were extracted from the bath.
Sample of nateglinide form U (˜0.5 g) was heated to 120° C. for 1 h in an atmospheric pressure.
Sample of nateglinide form δ (˜0.5 g) was heated to 120° C. for 1 h in an atmospheric pressure.
The product of example 11 was dried at 50° C. in a vacuum oven overnight, and analyzed by XRD.
Nateglinide (40 grams) Form delta (1.5% heptane) was dried in a stirred reactor (7-10 rpm) under 60 mmHg vacuum and at 60° C.

[2] = by DSC, according to U.S. Pat. No. 5,463,116; cited from earlier work
[3] = heating under ambient or reduced pressure

## CC(C)[C@H]1CC[C@H](C(=O)N[C@H](Cc2ccccc2)C(=O)O)CC1 [nitromethane solvates of Form Epsilon, nateglinide]
[1]; [3]
  form obtained upon drying / heating: Forms H or P

## CC(C)[C@H]1CC[C@H](C(=O)N[C@H](Cc2ccccc2)C(=O)O)CC1 [delta]
[1]; 60 mmHg vacuum, 60° C., 6 hours, 7-10 rpm, starting with 1.5% heptane
  polymorph after drying in a stirred reactor: remained delta form
[1]; 4 hours at 60° C., starting with about 3% heptane (wt/wt)
  polymorphic form after drying in a fluidized bed drier: delta

## CC(C)[C@H]1CC[C@H](C(=O)N[C@H](Cc2ccccc2)C(=O)O)CC1 [acetonitrile solvate of Form Epsilon, nateglinide]
[1]; [3]
  form obtained upon drying / heating: Form B

## CC(C)[C@H]1CC[C@H](C(=O)N[C@H](Cc2ccccc2)C(=O)O)CC1 [Form Ω, nateglinide]
[1]; wet sample, 50° C., vacuum oven, overnight
  form by XRD after drying in a vacuum oven: mixture of Form omega and Form Z

## CC(C)[C@H]1CC[C@H](C(=O)N[C@H](Cc2ccccc2)C(=O)O)CC1 [Form B, nateglinide]
[2]
  stability of crystals during grinding: unstable and susceptible to change during grinding

## CC(C)[C@H]1CC[C@H](C(=O)N[C@H](Cc2ccccc2)C(=O)O)CC1 [sigma]
[1]; [3]
  thermal stability (conversion to another form upon heating): thermally stable
